US12642797B2, “Coated granule, solid dispersion, and preparation containing vortioxetine hydrobromide for oral taste masking” (Seasons Biotechnology (Taizhou) Co., Ltd., priority 2019, dated 2026)
Where a name gives a salt, the structure may show the parent alone.

What was measured:
oral cavity and tongue = test: Taste and irritation test by subjects (self-made sample vs reference sample); type: in vivo, human; conditions: for Instantaneous irritation / Delayed irritation: hemihydrobromide
Description: In the examples, the taste masking effects of test samples were evaluated by the subject's perception of the bitterness and irritation of the oral cavity and tongue. The Taste and Irritation Classification Tested by the Subjects: [table]

[1] = Solubility in sodium acetate medium pH 6.8 simulating the oral environment (USP method); type: physicochemical; conditions: sodium acetate medium pH 6.8, USP method; hemihydrobromide
tongue = test: Comparative Example 1: comparison of taste of different vortioxetine salts (10 subjects, 30 attempts); conditions: converted to the same amount of C18H22N2S
Description: The vortioxetine lactate salt, vortioxetine hydrobromide and vortioxetine hemihydrobromide equivalent to 5 mg of vortioxetine respectively over 100 mesh powders were put directly in front of the upper part of the tongue for one minute. There were 10 subjects in each salt-type group, and each subject randomly tried each salt-type 3 times. After trying one salt-type taste, rinsed your mouth, and try another salt-type after there was no irritation. After trying the taste, record the bitterness level and tongue irritation, spit it out a few seconds later, rinse your mouth, record the time for the irritation to subside, eat 1-1.5 hours later, and record the irritation again.

For `Cc1ccc(Sc2ccccc2N2CCNCC2)c(C)c1` [vortioxetine hemihydrobromide], the Instantaneous irritation (oral cavity and tongue; Subject 4, 0-1 minute, powder equivalent to 20 mg of vortioxetine tasted, listed as Reference sample (2a)) was “++ (+ + Irritating, tolerable)”, the Instantaneous irritation (oral cavity and tongue; Subject 4, 0-1 minute, powder equivalent to 20 mg of vortioxetine tasted, listed as Reference sample (2c)) was “++ (+ + Irritating, tolerable)” and the Instantaneous irritation (oral cavity and tongue; Subject 4, 0-1 minute, powder equivalent to 20 mg of vortioxetine tasted, listed as Reference sample (3a)) was “+++ (+ + + Strong irritation, intolerable)”. The Instantaneous irritation (oral cavity and tongue; Subject 4, 0-1 minute, powder equivalent to 20 mg of vortioxetine tasted, listed as Reference sample (3b)) was “+++ (+ + + Strong irritation, intolerable)”, the Instantaneous irritation (oral cavity and tongue; Subject 4, 0-1 minute, powder equivalent to 20 mg of vortioxetine tasted, listed as Reference sample (3c)) was “+++ (+ + + Strong irritation, intolerable)” and the Instantaneous irritation (oral cavity and tongue; Subject 4, 0-1 minute, powder equivalent to 20 mg of vortioxetine tasted, listed as Reference sample (4a)) was “+++ (+ + + Strong irritation, intolerable)”. For the same molecule, the Instantaneous irritation (oral cavity and tongue; Subject 4, 0-1 minute, powder equivalent to 20 mg of vortioxetine tasted, listed as Reference sample (1d)) was “++ (+ + Irritating, tolerable)”, the Instantaneous irritation (oral cavity and tongue; Subject 4, 0-1 minute, powder equivalent to 20 mg of vortioxetine tasted, listed as Reference sample (2d)) was “++ (+ + Irritating, tolerable)” and the “Delayed irritation” value (oral cavity and tongue; Subject 4, powder equivalent to 20 mg of vortioxetine tasted, listed as Reference sample (1a)) was 15 to 30 min. For the same molecule, the “Delayed irritation” value (oral cavity and tongue; Subject 4, powder equivalent to 20 mg of vortioxetine tasted, listed as Reference sample (1e)) was 15 to 30 min, the “Delayed irritation” value (oral cavity and tongue; Subject 4, powder equivalent to 20 mg of vortioxetine tasted, listed as Reference sample (2a)) was greater than 30 min and the “Delayed irritation” value (oral cavity and tongue; Subject 4, powder equivalent to 20 mg of vortioxetine tasted, listed as Reference sample (2c)) was greater than 30 min. For the same molecule, the “Delayed irritation” value (oral cavity and tongue; Subject 4, powder equivalent to 20 mg of vortioxetine tasted, listed as Reference sample (3a)) was 1 to 15 min, the “Delayed irritation” value (oral cavity and tongue; Subject 4, powder equivalent to 20 mg of vortioxetine tasted, listed as Reference sample (3b)) was 1 to 15 min and the “Delayed irritation” value (oral cavity and tongue; Subject 4, powder equivalent to 20 mg of vortioxetine tasted, listed as Reference sample (3c)) was greater than 30 min. The “Delayed irritation” value (oral cavity and tongue; Subject 4, powder equivalent to 20 mg of vortioxetine tasted, listed as Reference sample (4a)) was greater than 30 min, the “Delayed irritation” value (oral cavity and tongue; Subject 4, powder equivalent to 20 mg of vortioxetine tasted, listed as Reference sample (5)) was greater than 30 min and the “Delayed irritation” value (oral cavity and tongue; Subject 4, powder equivalent to 20 mg of vortioxetine tasted, listed as Reference sample (6)) was 15 to 30 min. For the same molecule, the “Delayed irritation” value (oral cavity and tongue; Subject 4, powder equivalent to 20 mg of vortioxetine tasted, listed as Reference sample (7a)) was greater than 30 min, the “Delayed irritation” value (oral cavity and tongue; Subject 4, powder equivalent to 20 mg of vortioxetine tasted, listed as Reference sample (8a)) was greater than 30 min and the “Delayed irritation” value (oral cavity and tongue; Subject 4, powder equivalent to 20 mg of vortioxetine tasted, listed as Reference sample (8b)) was greater than 30 min. The “Delayed irritation” value (oral cavity and tongue; Subject 4, powder equivalent to 20 mg of vortioxetine tasted, listed as Reference sample (1d)) was 15 to 30 min, the “Delayed irritation” value (oral cavity and tongue; Subject 4, powder equivalent to 20 mg of vortioxetine tasted, listed as Reference sample (2d)) was greater than 30 min and the Instantaneous irritation (oral cavity and tongue; Subject 5, 0-1 minute, powder equivalent to 20 mg of vortioxetine tasted, listed as Reference sample (1a)) was “+++ (+ + + Strong irritation, intolerable)”. The Instantaneous irritation (oral cavity and tongue; Subject 5, 0-1 minute, powder equivalent to 20 mg of vortioxetine tasted, listed as Reference sample (1e)) was “+++ (+ + + Strong irritation, intolerable)”, the Instantaneous irritation (oral cavity and tongue; Subject 5, 0-1 minute, powder equivalent to 20 mg of vortioxetine tasted, listed as Reference sample (2a)) was “+++ (+ + + Strong irritation, intolerable)” and the Instantaneous irritation (oral cavity and tongue; Subject 5, 0-1 minute, powder equivalent to 20 mg of vortioxetine tasted, listed as Reference sample (2c)) was “+++ (+ + + Strong irritation, intolerable)”. The Instantaneous irritation (oral cavity and tongue; Subject 5, 0-1 minute, powder equivalent to 20 mg of vortioxetine tasted, listed as Reference sample (3a)) was “+++ (+ + + Strong irritation, intolerable)”, the Instantaneous irritation (oral cavity and tongue; Subject 5, 0-1 minute, powder equivalent to 20 mg of vortioxetine tasted, listed as Reference sample (3b)) was “+++ (+ + + Strong irritation, intolerable)” and the Instantaneous irritation (oral cavity and tongue; Subject 5, 0-1 minute, powder equivalent to 20 mg of vortioxetine tasted, listed as Reference sample (3c)) was “++ (+ + Irritating, tolerable)”. The Instantaneous irritation (oral cavity and tongue; Subject 5, 0-1 minute, powder equivalent to 20 mg of vortioxetine tasted, listed as Reference sample (4a)) was “++ (+ + Irritating, tolerable)”, the Instantaneous irritation (oral cavity and tongue; Subject 5, 0-1 minute, powder equivalent to 20 mg of vortioxetine tasted, listed as Reference sample (1d)) was “+++ (+ + + Strong irritation, intolerable)” and the Instantaneous irritation (oral cavity and tongue; Subject 5, 0-1 minute, powder equivalent to 20 mg of vortioxetine tasted, listed as Reference sample (2d)) was “++ (+ + Irritating, tolerable)”. The “Delayed irritation” value (oral cavity and tongue; Subject 5, powder equivalent to 20 mg of vortioxetine tasted, listed as Reference sample (1a)) was greater than 30 min, the “Delayed irritation” value (oral cavity and tongue; Subject 5, powder equivalent to 20 mg of vortioxetine tasted, listed as Reference sample (1e)) was greater than 30 min and the “Delayed irritation” value (oral cavity and tongue; Subject 5, powder equivalent to 20 mg of vortioxetine tasted, listed as Reference sample (2a)) was 15 to 30 min. The “Delayed irritation” value (oral cavity and tongue; Subject 5, powder equivalent to 20 mg of vortioxetine tasted, listed as Reference sample (2c)) was 15 to 30 min, the “Delayed irritation” value (oral cavity and tongue; Subject 5, powder equivalent to 20 mg of vortioxetine tasted, listed as Reference sample (3a)) was 1 to 15 min and the “Delayed irritation” value (oral cavity and tongue; Subject 5, powder equivalent to 20 mg of vortioxetine tasted, listed as Reference sample (3b)) was 1 to 15 min. The “Delayed irritation” value (oral cavity and tongue; Subject 5, powder equivalent to 20 mg of vortioxetine tasted, listed as Reference sample (3c)) was greater than 30 min, the “Delayed irritation” value (oral cavity and tongue; Subject 5, powder equivalent to 20 mg of vortioxetine tasted, listed as Reference sample (4a)) was 15 to 30 min and the “Delayed irritation” value (oral cavity and tongue; Subject 5, powder equivalent to 20 mg of vortioxetine tasted, listed as Reference sample (5)) was 15 to 30 min. For the same molecule, the “Delayed irritation” value (oral cavity and tongue; Subject 5, powder equivalent to 20 mg of vortioxetine tasted, listed as Reference sample (6)) was greater than 30 min, the “Delayed irritation” value (oral cavity and tongue; Subject 5, powder equivalent to 20 mg of vortioxetine tasted, listed as Reference sample (7a)) was greater than 30 min and the “Delayed irritation” value (oral cavity and tongue; Subject 5, powder equivalent to 20 mg of vortioxetine tasted, listed as Reference sample (8a)) was 15 to 30 min. The “Delayed irritation” value (oral cavity and tongue; Subject 5, powder equivalent to 20 mg of vortioxetine tasted, listed as Reference sample (8b)) was 15 to 30 min, the “Delayed irritation” value (oral cavity and tongue; Subject 5, powder equivalent to 20 mg of vortioxetine tasted, listed as Reference sample (1d)) was greater than 30 min and the “Delayed irritation” value (oral cavity and tongue; Subject 5, powder equivalent to 20 mg of vortioxetine tasted, listed as Reference sample (2d)) was 15 to 30 min. For the same molecule, the “Delayed irritation, time to disappear” value (oral cavity and tongue; average of 5 subjects, powder equivalent to 20 mg of vortioxetine) was “more than 30 minutes”, the Instantaneous irritation (oral cavity and tongue; average of 5 subjects, powder equivalent to 20 mg of vortioxetine, listed as Reference sample (1a)) was “+++ (+ + + Strong irritation, intolerable)” and the Instantaneous irritation (oral cavity and tongue; average of 5 subjects, powder equivalent to 20 mg of vortioxetine, listed as Reference sample (1e)) was “+++ (+ + + Strong irritation, intolerable)”. The Instantaneous irritation (oral cavity and tongue; average of 5 subjects, powder equivalent to 20 mg of vortioxetine, listed as Reference sample (2a)) was “+++ (+ + + Strong irritation, intolerable)”, the Instantaneous irritation (oral cavity and tongue; average of 5 subjects, powder equivalent to 20 mg of vortioxetine, listed as Reference sample (2c)) was “++ (+ + Irritating, tolerable)” and the Instantaneous irritation (oral cavity and tongue; average of 5 subjects, powder equivalent to 20 mg of vortioxetine, listed as Reference sample (3a)) was “++ (+ + Irritating, tolerable)”. The Instantaneous irritation (oral cavity and tongue; average of 5 subjects, powder equivalent to 20 mg of vortioxetine, listed as Reference sample (3b)) was “++ (+ + Irritating, tolerable)”, the Instantaneous irritation (oral cavity and tongue; average of 5 subjects, powder equivalent to 20 mg of vortioxetine, listed as Reference sample (3c)) was “++ (+ + Irritating, tolerable)” and the Instantaneous irritation (oral cavity and tongue; average of 5 subjects, powder equivalent to 20 mg of vortioxetine, listed as Reference sample (4a)) was “+++ (+ + + Strong irritation, intolerable)”. For the same molecule, the Instantaneous irritation (oral cavity and tongue; average of 5 subjects, powder equivalent to 20 mg of vortioxetine, listed as Reference sample (5)) was “++ (+ + Irritating, tolerable)”, the Instantaneous irritation (oral cavity and tongue; average of 5 subjects, powder equivalent to 20 mg of vortioxetine, listed as Reference sample (6)) was “++ (+ + Irritating, tolerable)” and the Instantaneous irritation (oral cavity and tongue; average of 5 subjects, powder equivalent to 20 mg of vortioxetine, listed as Reference sample (7a)) was “+++ (+ + + Strong irritation, intolerable)”. The Instantaneous irritation (oral cavity and tongue; average of 5 subjects, powder equivalent to 20 mg of vortioxetine, listed as Reference sample (8a)) was “++ (+ + Irritating, tolerable)”, the Instantaneous irritation (oral cavity and tongue; average of 5 subjects, powder equivalent to 20 mg of vortioxetine, listed as Reference sample (8b)) was “++ (+ + Irritating, tolerable)” and the Instantaneous irritation (oral cavity and tongue; average of 5 subjects, powder equivalent to 20 mg of vortioxetine, listed as Reference sample (9a)) was “+++ (+ + + Strong irritation, intolerable)”. The Instantaneous irritation (oral cavity and tongue; average of 5 subjects, powder equivalent to 20 mg of vortioxetine, listed as Reference sample (9c)) was “+++ (+ + + Strong irritation, intolerable)”, the Instantaneous irritation (oral cavity and tongue; average of 5 subjects, powder equivalent to 20 mg of vortioxetine, listed as Reference sample (9e)) was “++ (+ + Irritating, tolerable)” and the Instantaneous irritation (oral cavity and tongue; average of 5 subjects, powder equivalent to 20 mg of vortioxetine, listed as Reference sample (11a)) was “++ (+ + Irritating, tolerable)”. For the same molecule, the Instantaneous irritation (oral cavity and tongue; average of 5 subjects, powder equivalent to 20 mg of vortioxetine, listed as Reference sample (12a)) was “+++ (+ + + Strong irritation, intolerable)”, the Instantaneous irritation (oral cavity and tongue; average of 5 subjects, powder equivalent to 20 mg of vortioxetine, listed as Reference sample (12b)) was “+++ (+ + + Strong irritation, intolerable)” and the Instantaneous irritation (oral cavity and tongue; average of 5 subjects, powder equivalent to 20 mg of vortioxetine, listed as Reference sample (13a)) was “++ (+ + Irritating, tolerable)”. The Instantaneous irritation (oral cavity and tongue; average of 5 subjects, powder equivalent to 20 mg of vortioxetine, listed as Reference sample (13b)) was “++ (+ + Irritating, tolerable)”, the Instantaneous irritation (oral cavity and tongue; average of 5 subjects, powder equivalent to 20 mg of vortioxetine, listed as Reference sample (14a)) was “++ (+ + Irritating, tolerable)” and the Instantaneous irritation (oral cavity and tongue; average of 5 subjects, powder equivalent to 20 mg of vortioxetine, listed as Reference sample (16)) was “++ (+ + Irritating, tolerable)”. For the same molecule, the Instantaneous irritation (oral cavity and tongue; average of 5 subjects, powder equivalent to 20 mg of vortioxetine, listed as Reference sample (17)) was “++ (+ + Irritating, tolerable)”, the Instantaneous irritation (oral cavity and tongue; average of 5 subjects, powder equivalent to 20 mg of vortioxetine, listed as Reference sample (1d)) was “+++ (+ + + Strong irritation, intolerable)” and the Instantaneous irritation (oral cavity and tongue; average of 5 subjects, powder equivalent to 20 mg of vortioxetine, listed as Reference sample (2d)) was “++ (+ + Irritating, tolerable)”. The Instantaneous irritation (oral cavity and tongue; average of 5 subjects, powder equivalent to 20 mg of vortioxetine, listed as Reference sample (9d)) was “++ (+ + Irritating, tolerable)”, the solubility [1] was 140 µg/mL and the “Irritation compared with vortioxetine hydrobromide, in words” value (tongue) was “significantly less irritating”.
